For one data set, the system named is Walker 256 rat sarcoma. The following applies: in vivo; cited from earlier work.
For a further data set, the system named is L1210 mouse leukemia. The settings on record: in vivo; cited from earlier work.
A further data set is described as follows: Acute toxicity (LD50). The settings on record: mouse, in vivo; intravenous, ICR mice (female, 6 weeks old), 14 days observation, Litchfield and Wilcoxon. An excerpt: The LD50 was obtained from the mortalities at the respective dosage groups by the Litchfield and Wilcoxon's method.
Another data set concerns nude mice. The data set can be described thus: in vivo. Also on record: species or system nude mice (BALB/c nu/nu). The following applies: intravenous, continuous 5 days, maximum dose at which no animal was dead within 2 weeks, 20160 min. On the procedure: (§1) (1) Measurement of maximum tolerated dose (MTD) of the spicamycin derivatives in nude mice
(§2) The spicamycin derivative was dissolved in dimethylsulfoxide (DMSO) and Cremophor EL® at the same volume as DMSO was added. Physiological saline was added so that the concentration of DMSO and Cremophor EL® was finally adjusted to 1%, respectively, and thus injection liquids of spicamycin derivative in a variety of concentrations were prepared. […] The maximum dose at which no animal was dead was defined as the MTD of the respective derivatives.

The subject of data set [1] is human colon cancer (COL-1). Format: in vivo, mouse. The settings on record: for Therapeutic index: /minimum effective dose (effective: TGIR≥50). On the procedure:
(2) Method for measuring the antitumor effect on human colon cancer (COL-1)
COL-1, a human colon cancer, was transplanted subcutaneously into nude mice. When the tumor had grown to a volume of about 100 mm^3, the nude mice were divided into groups of 5 animals so that the average tumor volumes of respective groups were equalized. The respective spicamycin derivatives were administered to test groups at their MTDs, while physiological saline (solvent) containing 1% DMSO and 1% Cremophor EL® was administered to the control group. […] RV is expressed as RV =Vn/Vo where Vn is the tumor volume on day n and Vo is the initial tumor volume at the time treatment was commenced.

A further data set in a line: in vivo. The following applies: mouse, in vivo; intravenous, continuous 5 days, nude mice; maximum dose at which no animal was dead within 2 weeks; read-out: Maximum tolerated dose. Also on record: species or system nude mice (BALB/c nu/nu). On the procedure:
as §1, §2

Like-named read-outs stand apart in the source and are kept apart here.

Consider `CC(C)CCCCCCCCCCCCC(=O)NCC(=O)NC1C(O)C(O)C(Nc2ncnc3nc[nH]c23)OC1C(O)CO` (stereo not shown) [septacidin], for which, in the data set on Walker 256 rat sarcoma, the “antitumor activity against Walker 256 rat sarcoma” value is recorded as “no antitumor activity”. The “antitumor activity against L1210 mouse leukemia” value in the data set on L1210 mouse leukemia is given as “no antitumor activity”.
For the compound `CCCCCCCCC/C=C/C=C/C(=O)NCC(=O)N[C@@H]1[C@@H](O)[C@@H](O)[C@@H](Nc2ncnc3[nH]cnc23)O[C@H]1C(O)CO` (stereo partly drawn) [SPK241, 6-[4'-N-(N'-trans,trans-2,4-tetradecadienoylglycyl)spicaminyl-amino]purine], the LD50 (commonly the dose expected to kill half of the subjects tested) at 336 h in “Acute toxicity (LD50)” amounted to 110 mg/kg. In addition, the Maximum tolerated dose with nude mice is given as 6 mg/kg/day. This compound also had a Therapeutic index in data set [1] of 16. In addition, in data set [1] (in vivo, sc), the “TGIR (tumor growth inhibition rate, maximum)” value was found to be 97 and the “minTx (relative tumor volume when reduced to the minimum)” value turned out to be 0.14.
Regarding `CCCCCCCCCCCCCCC(O)C(=O)NCC(=O)NC1C(O)C(O)C(Nc2ncnc3[nH]cnc23)OC1C(O)CO` (stereo not shown) [SPK112, 6-[4'-N-(N'-2-hydroxyhexadecanoylglycyl)spicaminyl-amino]purine], in “in vivo”, the MTD at 336 h is 0.85 mg/kg/day. The Therapeutic index in data set [1] stood at 4. Also, the “TGIR (tumor growth inhibition rate, maximum)” value in data set [1] (COL-1 s.c. in nude mice, at MTD, TGIR=(1-Tx/Cx)×100, maximum during about 3 weeks) was 82.

The record behind these values is patent publication US5461036A, “Spicamycin derivatives and their use as anticancer agents” (priority 1991, dated 1995).
